Laboratory results taken from ChEMBL document CHEMBL5506021, “Artificial Intelligence-Assisted Optimization of Antipigmentation Tyrosinase Inhibitors: De Novo Molecular Generation Based on a Low Activity Lead Compound” (J Med Chem, 2024).
The source made the active and inactive calls. No cut-off for these calls is given here.

Legend:
Mushroom tyrosinase [1] = molecular target: T1, Mushroom tyrosinase (Agaricus bisporus, UniProt O42713+Q00024+C7FF04+C7FF05)
Description: Inhibition of mushroom tyrosinase diphenolase activity using L-dopamine as substrate preincubated for 10 mins followed by substrate addition and measured after 20 mins by absorbance based assay

Mushroom tyrosinase [2] = molecular target: T1, Mushroom tyrosinase; remark: listed apart in the source
Description: Inhibition of mushroom tyrosinase monophenolase activity using L-tyrosine as substrate preincubated for 10 mins followed by substrate addition and measured after 20 mins by absorbance based assay

[3] = Metabolic stability in human plasma assessed as compound remaining at 100 uM incubated for 120 mins by LC/MS analysis; assay type: ADME, cell-free; details: read-out: Stability
[4] = Metabolic stability in human plasma assessed as half-life at 100 uM incubated for 120 mins by LC/MS analysis; assay type: ADME, cell-free
[5] = Metabolic stability in human liver microsomes assessed as compound remaining at 1.5 uM incubated for 45 mins by LC/MS analysis; assay type: ADME, Microsome; details: read-out: Stability
[6] = Metabolic stability in human liver microsomes assessed as half-life at 1.5 uM preincubated for 5 mins followed by NADPH addition and measured after 10 mins by LC/MS analysis; assay type: ADME, Microsome; details: time 15 min
[7] = Metabolic stability in human liver microsomes assessed as intrinsic clearance at 1.5 uM preincubated for 5 mins followed by NADPH addition and measured after 10 mins by LC/MS analysis; assay type: ADME, Microsome; details: time 15 min, read-out: CLH
[8] = Metabolic stability in human liver microsomes assessed as hepatic extraction ratio at 1.5 uM preincubated for 5 mins followed by NADPH addition and measured after 10 mins by LC/MS analysis; assay type: ADME, Microsome; details: time 15 min, read-out: ERH
Tyrosinase = molecular target: T2, Tyrosinase (Homo sapiens, UniProt P14679); experiment: Binding affinity to tyrosinase (unknown origin) assessed as dissociation constant by SPR analysis
T2 sequence (P14679 whole entry): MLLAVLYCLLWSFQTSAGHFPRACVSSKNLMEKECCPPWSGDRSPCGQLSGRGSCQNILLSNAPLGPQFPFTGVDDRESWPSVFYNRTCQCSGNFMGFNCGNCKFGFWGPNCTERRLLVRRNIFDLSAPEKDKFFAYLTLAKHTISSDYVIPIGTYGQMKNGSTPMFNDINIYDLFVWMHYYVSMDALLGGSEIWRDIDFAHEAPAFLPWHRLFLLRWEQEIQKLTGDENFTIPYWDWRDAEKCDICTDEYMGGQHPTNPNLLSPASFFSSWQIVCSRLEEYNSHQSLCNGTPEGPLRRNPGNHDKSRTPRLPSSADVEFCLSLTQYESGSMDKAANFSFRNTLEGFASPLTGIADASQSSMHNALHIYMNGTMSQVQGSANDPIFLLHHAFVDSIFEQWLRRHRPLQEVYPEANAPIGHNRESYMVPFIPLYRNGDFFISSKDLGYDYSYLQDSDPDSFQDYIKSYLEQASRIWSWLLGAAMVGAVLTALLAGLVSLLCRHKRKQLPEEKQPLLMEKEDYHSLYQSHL

[9] = zebrafish, in vivo, 45 h
Description: Toxicity in wildtype AB zebrafish assessed as minimum toxic concentration measured after 45 hrs

[10] = Toxicity in wildtype AB zebrafish assessed as effect on phenotype at 1 to 5 microM incubated for 45 hrs by anatomic microscopic analysis; design: species or system Danio rerio; details: in vivo, dose 1-5 µM
[11] = Toxicity in wildtype AB zebrafish assessed as effect on phenotype at 10 to 50 microM incubated for 45 hrs by anatomic microscopic analysis; design: species or system Danio rerio; details: in vivo, dose 10-50 µM
[12] = Toxicity in wildtype AB zebrafish assessed as effect on growth at 1 to 5 microM incubated for 45 hrs by anatomic microscopic analysis; design: species or system Danio rerio; details: in vivo, dose 1-5 µM
[13] = Toxicity in wildtype AB zebrafish assessed as effect on growth at 10 to 50 microM incubated for 45 hrs by anatomic microscopic analysis; design: species or system Danio rerio; details: in vivo, dose 10-50 µM
Danio rerio [14] = species on record: Danio rerio; experiment: Anti-pigmentation activity in wildtype AB zebrafish assessed as depigmentation at 5 uM incubated for 45 hrs by anatomical microscopic analysis; assay type: functional
Danio rerio [15] = species on record: Danio rerio; experiment: Anti-pigmentation activity in wildtype AB zebrafish assessed as melanin looseness in head at 5 uM incubated for 45 hrs by anatomical microscopic analysis; assay type: functional, organism-based
Danio rerio [16] = species on record: Danio rerio; experiment: Anti-pigmentation activity in wildtype AB zebrafish assessed as melanin reduction in head at 5 uM incubated for 45 hrs by anatomical microscopic analysis; assay type: functional, organism-based

Row | Compound | IC50 (Mushroom tyrosinase [1]) [µM] | IC50 (Mushroom tyrosinase [2]) [µM] | other results
1 | Cc1ccc(NC(=O)CCN2CCCN(C/C=C/c3ccccc3)CC2)c(C)c1 | 465.1 | 255.4 | –
2 | Cc1cccc(C)c1NC(=O)CCCN1CCCN(C/C=C/c2ccccc2)CC1 | > 800 | 248.7 | –
3 | Cc1ccc(NC(=O)CCN2CCCN(C/C=C/c3ccccc3)CC2)cc1C | > 800 | > 800 | –
4 | Cc1ccc(NC(=O)CCN2CCCN(C/C=C/c3ccccc3)CC2)cc1 | 536.05 | 338.4 | –
5 | Cc1cc(C)c(NC(=O)CCN2CCCN(C/C=C/c3ccccc3)CC2)c(C)c1 | > 800 | 465.1 | –
6 | Cc1ccccc1NC(=O)CN1CCCN(C/C=C/c2ccccc2)CC1 | > 800 | > 800 | –
7 | Cc1ccc(NC(=O)CN2CCCN(C/C=C/c3ccccc3)CC2)c(C)c1 | > 800 | > 800 | –
8 | Cc1ccc(C)c(NC(=O)CN2CCCN(C/C=C/c3ccccc3)CC2)c1 | > 800 | > 800 | –
9 | Cc1cccc(C)c1NC(=O)CN1CCN(C/C=C/c2ccccc2)CC1 | 244.6 | 88.01 | –
10 | Cc1ccc(F)cc1NC(=O)CCN1CCCN(C/C=C/c2ccccc2)CC1 | > 800 | 639.85 | –
11 | Cc1ccc(NC(=O)CCC(=O)Nc2cnn(C/C=C/c3ccccc3)c2)c(C)c1 | > 800 | > 800 | –
12 | Cc1cc(Cl)ccc1NC(=O)CN1CCCN(C/C=C/c2ccccc2)CC1 | > 800 | > 800 | –

Second part, led by results:

Row | IC50 (Mushroom tyrosinase [1]) [µM] | IC50 (Mushroom tyrosinase [2]) [µM] | Compound | other results
13 | 204.3 | 173 | Cc1ccc(/C=C/CN2CCN(C(=O)CCC(=O)Nc3ccccc3C)CC2)cc1 | –
14 | 131.77 | 40.34 | Cc1ccc(/C=C/CN2CCN(C(=O)CCC(=O)Nc3ccc(O)cc3)CC2)cc1 | –
15 | 31.01 | 11.49 | Cc1ccc(/C=C/CN2CCN(C(=O)CCC(=O)Nc3ccccc3O)CC2)cc1 | remaining at 2 h, 100 µM [3]: 94.6%; half-life at 100 µM [4]: > 120 min; remaining at 0.75 h, 1.5 µM [5]: 28.1%; half-life at 1.5 µM [6]: 24.6 min; CLint scaled at 1.5 µM [7]: 65.2 mL/min/kg; hepatic extraction ratio at 10 min, 1.5 µM [8]: 0.759; Kd (Tyrosinase): 198 µM; MTC [9]: 5 µM
16 | > 800 | 652.9 | Cc1ccc(NC(=O)CCCN2CCN(C/C=C/c3ccccc3)CC2)c(C)c1 | Activity [10]: Non-Toxic; Activity [11]: Toxic; Activity [12]: Non-Toxic; Activity [13]: Toxic; Activity (Danio rerio [14]): 9.98%; Activity (Danio rerio [15]): Active; Activity (Danio rerio [16]): Active; MTC [9]: 50 µM
17 | > 800 | 681.3 | Cc1ccc(NC(=O)CCC(=O)N2CCCN(C/C=C/c3ccccc3)CC2)c(C)c1 | –
18 | > 800 | 393.05 | Cc1ccc(C)c(NC(=O)CCC(=O)N2CCCN(C/C=C/c3ccccc3)CC2)c1 | –
19 | > 800 | 744.95 | Cc1ccc(C)c(NC(=O)CC(=O)N2CCCN(C/C=C/c3ccccc3)CC2)c1 | –
20 | 555.4 | 234.2 | Cc1ccc(C)c(NC(=O)CCN2CCCN(C/C=C/c3ccccc3)CC2)c1 | –
21 | > 800 | 732.35 | Cc1ccc(NC(=O)CC(=O)N2CCCN(C/C=C/c3ccccc3)CC2)c(C)c1 | –
22 | > 800 | 217.17 | Cc1ccc(/C=C/CN2CCN(C(=O)CCC(=O)Nc3cccc(O)c3)CC2)cc1 | –
23 | 329.55 | 192.93 | Cc1ccc(/C=C/CN2CCN(C(=O)CCCC(=O)Nc3ccccn3)CC2)cc1 | –
